Here are results for two substances from patent US10272144B2, “Compositions for and methods of treating and preventing targeting tumor associated carbohydrate antigens” (Board of Trustees of the University of Arkansas, priority 2013, dated 2019).

Assay [1] deals with ZR-75-1 cells. The assay can be described thus: Toxicity against ZR-75-1 cells. The following applies: other experiments. It is filed as cell-based, human.
Assay [2] deals with HCC1954 cells. Briefly: Inhibition of migration of HCC1954 cells (transwell). Conditions: week 7 serum, 20 hours in transwells; FIG. 15. The class given is cell-based, human. How it is done: Cells were starved overnight and then harvested and mixed with either pre-immune serum or postimmune serum. The cell-serum mixtures were incubated in transwells for 20 hours. The cells were then stained and those on the surface were wiped out. Migrated cells were then visualized under a light microscope and counted. Average over three replications with SD are shown.

In assay [3] the test system is HCC1954 cells. The assay can be described thus: Serum cytotoxicity on HCC1954 cells (Example 5 patient). The class given is cell-based, human. Conditions: week 7 serum, 10%, 48 hours; FIG. 14B. How it is done: (§1) HCC1954 cells were harvested with enzyme-free buffer, washed and incubated with pre-immune sera or post-immune sera collected from the patient at Week 7. Binding of IgG antibodies in the sera to HCC1954 cells was visualized with an FITC-conjugated mouse anti-human IgG. […] The dashed line histogram show binding of IgG from pre-immune serum to HCC1954 cells. The solid line histogram show binding of IgG from post-immune serum collected at week 7 to HCC1954 cells. 1:100 dilution of the serum was used for reactivity. FIG. 14B is a bar graph showing that serum from the patient collected 7 weeks post-immunization kills HCC1954 breast cancer cells in vitro. 1×10^4 cells were seeded in wells of 96-well plate in medium containing 10% FBS. […] Medium in control wells contained 10% FBS. Media were refreshed after 24 hours. 48 hours after addition of sera, supernatants were removed, cells fixed and stained with Crystal violet. Percentage of cytotoxicity was calculated based on cell number in control wells. Error bars represent SD based on three replications. The experiment was repeated three times. Two tail Student's t-test was used for comparison of means.

Assay [4] deals with NK cells. The assay can be described thus: NK cell activation in vaccinated human patients. The following applies: human patients administered the vaccine. The class given is in vivo.
Assay [5] concerns MCF-10A cells. Briefly: Cytotoxicity of plasma on MCF-10A. The class given is cell-based, human. Conditions: 10% plasma, 24 hours (up to 72 hours); non-tumorigenic line; FIG. 12. Here is the method:
Pictures were taken after 24 hours of incubation with 10% plasma of the indicated subjects.
(§2) Medium in control wells contained 10% FBS.

Assay [6] concerns MDA-MB-231 cells. Briefly: Apoptosis induction (annexin V/propidium iodide). The class given is cell-based, human. The following applies: overnight incubation with sera; FIG. 16. How it is done:
Cells were incubated with 10% FBS (control) or either pre-immune or post-immune sera overnight and then harvested and stained with annexin V-FITC (FL1) and propidium iodide (FL3). Quadrants J4, P4 and Q4 show apoptotic cells in control, pre-immune serum treated and post-immune serum treated cells, respectively.

Assay [7] relates to MCF-7 cells. Briefly: Toxicity against MCF-7 cells. It is filed as cell-based, human. Conditions: other experiments.
Assay [8] deals with cancer cells (HCC1954 and MDA-MB-231). Briefly: Immunized plasma toxicity on cancer cells (both cell lines). It is filed as cell-based, human. The following applies: one line per subject.
Description: as §2

Assay [9] concerns HCC1954 cells. Briefly: Binding of serum IgG to HCC1954 cells (flow cytometry). The class given is cell-based, human. The following applies: week 7 serum, 1:100 dilution; FIG. 14A. Here is the method: as §1
For assay [10], the system named is MDA-MB-231 cells. The assay can be described thus: Sensitization of tumor cells to docetaxel toxicity by post-immune serum. The class given is cell-based, human. Conditions: 5 hours pre-incubation, docetaxel 24 hours; IC50 differs from FBS and pre-immune (P 6.21E-08, 0.002); FIG. 9. Here is the method:
MDA-MB-231 cells were cultured in RPMI medium containing 10% FBS overnight. Medium was then replaced with one that contained either pre-immune serum or post-immune serum. FBS was used as control. After 5 hours of incubation, docetaxel was added in serial dilutions into wells. 24 hours later wells were washed and live cells were fixed, stained and counted. Percentage of survival was calculated as the ratio of cell number at a given drug dose to the cell number at the “0” drug dose. Prism 5 software was used to fit dose response curves using survival data. IC50 of each curve was calculated.
MDA-MB-231 cells were cultured in RPMI medium containing 10% FBS overnight. Medium was then replaced with one that contained pre or post-immune sera. FBS was used as control. After 5 hours of incubation docetaxel was added in serial dilutions into wells. 24 hours later wells were washed and live cells were fixed, stained and counted. Percentage of survival was calculated as the ratio of cell number at a given drug dose to the cell number at the “0” drug dose. Prism 5 software was used to fit dose response curves using survival data. IC50 of each curve was calculated.

For assay [11], the system named is NK cells. Briefly: NK cell activation in mice. It is filed as in vivo.
For assay [12], the system named is stage IV breast cancer patients. Briefly: Phase I trial: clinical response (disease progression). The class given is in vivo, human. The following applies: one line per subject, concurrent chemotherapy. An excerpt: The P10s-PADRE vaccine was developed for, inter alia, treatment of breast cancer patients with high risk of disease relapse. In the Phase I trial, research participants were restricted to females with histological or cytological confirmed stage IV breast cancer. Women 18 years of age or older, of all races, with histologically or cytologically confirmed stage IV breast cancer were eligible, and subjects were enrolled after providing written, informed consent. Disease staging was done according to the American Joint Commission on Cancer (AJCC), sixth edition. The following eligibility criteria were used: The cancer may have been newly diagnosed metastatic or relapsed after primary or adjuvant therapy and must not have required a treatment change for 2 months. Treatments with anti-estrogen therapy or chemotherapy were allowed. The chemotherapy regimen could not contain steroids in the pre- or post-supportive-care medications. […] Subjects had to be immunocompetent as measured by responsiveness to two recall antigens by skin testing. […]

Assay [13] relates to multiple-antigen peptide (MAP) version of P10s. The assay can be described thus: ELISA of anti-P10s antibodies in sera/plasma of vaccinated subjects. It is filed as in vivo, human. The following applies: for Immunized plasma binding to MAP (ELISA): one line per subject. How it is done: IgM and IgG fractions of serum antibodies from the immunized patient bind to MAP form of P10s in ELISA assays. ELISA plates were coated with 1 μg/well of the P10s MAP peptide in carbonate-bicarbonate buffer overnight. Serial dilutions were added after blocking wells in PBS containing 0.5% FBS and 0.2% Tween 20 for 1 h at 37° C. Serum dilutions were incubated for two hours at 37° C. After washing, wells were incubated with HRP-conjugated mouse anti-human IgM and IgG for 1 hour at 37° C., then substrate was added and the reaction was stopped after 20 minutes. Plates were read by an ELISA reader at […]. Titers were estimated from absorbance-versus-dilution curves by linear regression. The intercept of the regression line for each subject's pre-immune serum was defined as the absorbance cutoff for determining end-point titer for that subject, and the dilution where each sample's regression line crossed the subject's absorbance cutoff was defined to be the sample's end-point titer. Extrapolation beyond one dilution below the minimum or above the maximum actual dilutions was not allowed. This procedure normalized each subject's pre-immune titer to be 1:100, and subjects with a 10-fold or greater increase in end-point titer over the 1:100 titer are considered responders.
ELISA plates were coated with MAP version of P10s and reactivity of two-fold serial dilutions of pre- and post-immune sera was detected by HRP-conjugated anti-human IgG (FIG. 7A) and IgM (FIG. 7B). The endpoint titers shown in FIG. 7A and FIG. 7B were estimated from absorbance-versus-dilution curves by linear regression. The intercept of the regression line for each subject's pre-immune serum was the value used as the absorbance cutoff for determining end-point titer for that subject, and the dilution where each sample's regression line crossed the subject's absorbance cutoff was defined to be the sample's end-point titer. Extrapolation beyond one dilution below the minimum or above the maximum actual dilutions was not allowed. This procedure normalized each subject's pre-immune titer to be 1:100.
The presence of anti-P10s antibodies in the sera of patients before and after vaccination was assessed with ELISA. ELISA plates were coated with 1 μg/well of the multiple-antigen peptide (MAP) version of P10s in carbonate-bicarbonate buffer (Sigma-Aldrich, St. Louis, Mo.) overnight. Serial 2-fold dilutions of plasma and serum samples, from 1:100 (dilution step 0) to a final dilution of 1:12800 (dilution step 7), were added after blocking wells with PBS containing 0.5% FBS and 0.2% Tween 20 (Blocking buffer) for 1 h at 37° C. Serum dilutions in blocking buffer were incubated for two hours at 37° C. After washing, wells were incubated with HRP-conjugated mouse anti-human IgM and IgG (Sigma-Aldrich) for 1 hour at 37° C. Then Tetramethylbenzidine substrate (Sigma-Aldrich) was added and the reaction was stopped after 20 minutes. Plates were read using an ELISA reader at […].
The resulting absorbance-versus-dilution curves were used to estimate normalized endpoint titers as follows. (1) A linear regression of absorbance versus dilution step was performed on the serial dilutions of each sample from each subject, in which dilution steps were numbered as described above. (2) The intercept of the regression line for each subject's pre-immune sample was the value used as the absorbance cutoff for determining the endpoint titers of all samples collected from that subject. (3) The dilution step where each sample's regression line crossed the subject's absorbance cutoff was determined and called X(c), and the normalized endpoint titer was estimated from X(c) as Titer=1:(100*2^X(c)). This procedure normalized each subject's pre-immune titer to be 1:100. […]

Assay [14] deals with metastatic HER2+ Breast Cancer. Briefly: Clinical course of patient with metastatic HER2+ breast cancer (PET scans). It is filed as in vivo, human. The following applies: one patient, on continued Vinorelbine and Trastuzumab; after initial increased PET uptake.
Assay [15] deals with HLA-DR. The following applies: cited from earlier work.

Where “and” joins values, the source holds several entries; their conditions need not be identical. Equal values may be shown once. Entries after “also recorded” stand apart in the source; their conditions may differ.

As to “H-Trp-Arg-Tyr-Thr-Ala-Pro-Val-His-Leu-Gly-Asp-Gly-dAla-Lys-CHAla-Val-Ala-Ala-Trp-Thr-Leu-Lys-Ala-Ala-dAla-NH2 [P10s-PADRE]”, the toxicity result is reported as “toxicity was observe” in [1] and “no toxicity” in [7]. For the same substance, in assay [2], the migration of cells entry is on record as “inhibited the migration”. The “cell death on incubation with post-immunization serum” value in assay [3] is “significant stimulation of cell death”. The NK cell activation entry in assay [4] is recorded as “NK cells were activated”; in assay [11] it was “no NK activation”. In assay [5], the toxicity of plasma result is reported as “No toxicity”. For the same substance, the apoptosis entry in assay [6] is “induced apoptosis”. The “Immunized plasma toxicity on cancer cells” value in assay [8] (300 μg peptide per vaccination) was “Yes”; in assay [8] (500 μg peptide per vaccination, subject #5: high background toxicity in preimmune plasma), “Yes (2×) and No†”. Also, the “binding of vaccine-induced serum to cells” value in assay [9] is “bound”. The “effect of pre-incubation with post-immunization serum on docetaxel toxicity” value in assay [10] is “sensitized tumor cells to docetaxel toxicity”. Also, the “Disease Progression” value is on record as “Stable; also recorded: Progressed” in assay [12] (300 μg peptide per vaccination) and “Stable” in assay [12] (500 μg peptide per vaccination). The “Immunized plasma binding to MAP (ELISA)” value in assay [13] (300 μg peptide per vaccination) and in [13] (500 μg peptide per vaccination) was “Yes” throughout. Moreover, the “normalized endpoint titers, higher dose cohort vs lower dose cohort” value in [13] (500 μg vs 300 μg, FIG. 10) is listed as “higher normalized endpoint titers”. Also, in assay [13] (Example 5 patient), the “anti-peptide IgG persistence” value was “remained high”. The “anti-peptide IgM persistence” value in [13] (Example 5 patient) is recorded as “returned back to the baseline by week 19”. Further, the “time course of anti-peptide IgM and IgG” value in assay [13] (Example 5 patient, FIG. 13) is given as “peaked at week seven”. Besides, the “IgG response to P10s MAP peptide form after immunization” value in assay [13] (all six subjects, FIG. 10) is “persistent IgG response”. In assay [13] (all subjects of Example 3, FIGS. 4, 5), the “IgG and IgM response to the vaccine” value was “All subjects displayed an IgG and IgM response”. The “increase of anti-peptide serum IgG normalized endpoint titer at week 7 compared to pre-immune” value in [13] (subject #2 (300 μg), lowest of range) is listed as 31 folds; in assay [13] (subjects #5 and #6 (500 μg), highest of range), 256 folds. The “persistence of anti-P10s titer” value in assay [13] (three subjects evaluated further) was “starts to drop one year after the last immunization”. For the same substance, in assay [14], the “lung lesions after vaccination” value is “improvement of their lung lesions”.

Take “dAla-Lys-CHAla-Val-Ala-Ala-Trp-Thr-Leu-Lys-Ala-Ala-dAla [PADRE]”: in assay [15], the “number of the 16 most common types of HLA-DR with which complexes are formed” value is reported as “at least 15”.
